# Laboratory results taken from paper PMC11919252 (eLife, 2025).
# Experiments:
# [1] = system: WT and Tac1::Calca DKO mice; conditions: background statement on oxaliplatin; ref MacDonald et al., 2021; cited from earlier work
# Source text: Lastly, we investigated how dual peptide deletion affected the development of allodynia symptoms, where innocuous stimuli are perceived as painful, in two mouse models of neuropathic pain ([Jensen and Finnerup, 2014]).
# [2] = system: WT and Tac1::Calca DKO mice; experiment: Oxaliplatin cold allodynia, Cold Plate; assay type: in vivo, mouse; conditions: intraplantar oxaliplatin, one day after treatment, Cold Plate at 10 °C, 5 min
# Source text: The plate was set to the desired temperature. A camera set up with a mirror was used for better visibility of the mouse on the hot plate. A clear cylindrical tube was placed around the hot plate to ensure the mouse cannot escape. Once the hot plate reached the set temperature, the mouse was placed on the hot plate and the top of the cylinder was covered. At the cut-off time, the mouse was taken off the hot plate and placed back in the cage. The latency to lick was scored post-hoc using the recorded videos by a blinded observer.
# Chemotherapy-induced neuropathy was induced in mice by intraplantar injection of oxaliplatin into the left hind paw ([Deuis et al., 2013]; [MacDonald et al., 2021]). Oxaliplatin was made up to a dose of 80 µg in 40 µl of 5% glucose solution, due to its instability in chloride-containing saline solution. The number of nocifensive behaviors in 5 min was assessed on the Cold Plate held at 10 °C 24 hr later.
smiles,measurement,setting,value
O=C1[O][Pt]2([NH][C@@H]3CCCC[C@H]3[NH]2)[O]C1=O [oxaliplatin],Cold allodynia evoked by oxaliplatin,[1],evokes extreme cold allodynia
same,Pain-like behaviors on Cold Plate,[2],both DKO and WT animals displayed pronounced pain-like behaviors
